Results: PMC6155437 (Molecules : A Journal of Synthetic Chemistry and Natural …, 2017)
pIC50, pKi: −log10 of the molar value. Entries after “also recorded” stand apart in the source; their conditions may differ.

What was measured:
Type in all cases: in vitro ADME
CYP3A4 = CYP3A4 (Homo sapiens, UniProt P08684); test: CYP3A4 midazolam 1′-hydroxylase inhibition in human liver microsomes; parameters: tissue Corning Life Sciences; host or cells: pooled human liver microsomes (150 donors); conditions: for IC50: Midazolam 1′-hydroxylase
Method: (§1) After a 3-min pre-incubation at 37 °C, the reactions were initiated by addition of NADPH and incubation proceeded for 15 min at 37 °C in a shaking water bath. […] The incubation mixtures were centrifuged (13,000× g, 4 min, 4 °C). All assays were performed in triplicate and mean values were used in calculations.
(§2) Each reaction was initiated by adding the seven-CYP probe substrate cocktail.
(§3) The reactions were initiated by addition of NADPH at 37 °C and stopped after 10 min by placing the incubation tubes on ice and adding 100 μL of ice-cold methanol containing an internal standard (d9-1-hydroxybufuralol). The incubation mixtures were centrifuged (13,000× g, 4 min, 4 °C) and then 50 μL of the supernatant was diluted with 50 μL of water. Aliquots (5 μL) of the diluted supernatants were analyzed by LC-MS/MS.
(§4) The metabolites formed from CYP substrates were quantified simultaneously by a LC-MS/MS method described previously. The ESI source settings in positive-ion mode for metabolite ionization were: capillary voltage, 4200 V; vaporizer temperature, 350 °C; capillary temperature, 330 °C; sheath gas pressure, 35 psi; and auxiliary gas pressure, 15 psi. Quantification was performed by selected reaction monitoring (SRM) of the [M + H]^+ ion and the related product ion for each metabolite: acetaminophen, 152.1 > 110.3; N-desethylamodiaquine, 328.1 > 283.0; 7-hydroxycoumarin, 163.0 > 107.2; 4-hydroxybupropion, 256.1 > 238.0; 4′-hydroxydiclofenac, 312.0 > 231.1; 4′-hydroxy-mephenytoin; 235.1 > 150.1; 1′-hydroxybufuralol, 278.1 > 186.1; 1′-hydroxymidazolam, 341.9 > 324.0; ^13C2,^15N-acetaminophen 155.1 > 111.2; and d9-1′-hydroxybufuralol, 287.2 > 187.0. Analytical data were processed using Xcalibur software (version 2.1, Thermo Scientific).
(§5) The apparent kinetic parameters for inhibitory potential (Ki and kinact values) and inhibition mode were estimated from the fitted curves using the Enzyme Kinetics program (ver. 1.1; Systat Software Inc., San Jose, CA, USA).

UGT1A4 = molecular target: T1, UGT1A4 (Homo sapiens, UniProt P22310); test: UGT1A4 trifluoperazine N-glucuronidation inhibition in human liver microsomes; conditions: at 50 µM
T1 construct: pooled human liver microsomes (0.2 mg/mL), 5 mM UDPGA; tissue Corning Life Sciences; host or cells: pooled human liver microsomes (150 donors)
T1 sequence (P22310 29-534): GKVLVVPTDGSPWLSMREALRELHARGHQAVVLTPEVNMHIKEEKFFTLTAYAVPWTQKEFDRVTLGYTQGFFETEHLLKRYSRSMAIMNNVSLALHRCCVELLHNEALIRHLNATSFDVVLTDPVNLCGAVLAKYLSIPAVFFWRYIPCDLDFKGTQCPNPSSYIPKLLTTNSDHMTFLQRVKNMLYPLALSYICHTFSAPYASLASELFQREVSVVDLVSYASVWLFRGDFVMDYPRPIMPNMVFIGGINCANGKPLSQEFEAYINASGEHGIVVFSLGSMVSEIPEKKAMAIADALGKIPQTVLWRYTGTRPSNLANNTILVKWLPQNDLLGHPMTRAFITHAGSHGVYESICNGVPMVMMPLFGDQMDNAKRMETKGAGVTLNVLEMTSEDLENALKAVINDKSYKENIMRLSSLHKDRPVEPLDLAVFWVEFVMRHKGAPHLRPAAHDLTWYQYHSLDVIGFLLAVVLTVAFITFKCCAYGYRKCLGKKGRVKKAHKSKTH
Method: After 3 min of pre-incubation at 37 °C, the reactions were initiated by addition of UDPGA; incubation continued for 60 min at 37 °C in a shaking water bath. The reaction was stopped by placing the tubes on ice and adding 50 µL ice-cold acetonitrile containing internal standards (propofol glucuronide for chenodeoxycholic acid 24-acyl-β-glucuronide and mycophenolic acid glucuronide, and meloxicam for SN-38 glucuronide, trifluoperazine glucuronide, N-acetylserotonin β-D-glucuronide, and naloxone 3-β-D-glucuronide). The incubation mixtures were centrifuged (13,000× g, 4 min, 4 °C). All assays were performed in triplicate and average values were used in calculations.
The metabolites formed from the six UGT cocktail substrates were measured simultaneously using the LC-MS/MS method. The ESI source settings in both positive- and negative-ion modes for metabolite ionization were: capillary voltage, 4200 V; vaporizer temperature, 350 °C; capillary temperature, 330 °C; sheath gas pressure, 35 psi; and auxiliary gas pressure, 15 psi. […] Data were processed using Xcalibur software.
as §5

CYP2C9 = molecular target: T2, CYP2C9 (Homo sapiens, UniProt P11712); test: CYP2C9 diclofenac 4′-hydroxylase inhibition in human liver microsomes; conditions: for IC50: Diclofenac 4′-hydroxylase
T2 construct: tissue Corning Life Sciences; host or cells: pooled human liver microsomes (150 donors)
Method: as §1, §2, §3, §4, §5

CYP2B6 = molecular target: T3, CYP2B6 (Homo sapiens, UniProt P20813); test: CYP2B6 bupropion hydroxylase inhibition in ultrapool human liver microsomes; conditions: at 50 µM
T3 construct: pooled human liver microsomes (0.2 mg/mL); tissue Corning Life Sciences; host or cells: pooled human liver microsomes (150 donors)
T3 sequence (P20813 1-491): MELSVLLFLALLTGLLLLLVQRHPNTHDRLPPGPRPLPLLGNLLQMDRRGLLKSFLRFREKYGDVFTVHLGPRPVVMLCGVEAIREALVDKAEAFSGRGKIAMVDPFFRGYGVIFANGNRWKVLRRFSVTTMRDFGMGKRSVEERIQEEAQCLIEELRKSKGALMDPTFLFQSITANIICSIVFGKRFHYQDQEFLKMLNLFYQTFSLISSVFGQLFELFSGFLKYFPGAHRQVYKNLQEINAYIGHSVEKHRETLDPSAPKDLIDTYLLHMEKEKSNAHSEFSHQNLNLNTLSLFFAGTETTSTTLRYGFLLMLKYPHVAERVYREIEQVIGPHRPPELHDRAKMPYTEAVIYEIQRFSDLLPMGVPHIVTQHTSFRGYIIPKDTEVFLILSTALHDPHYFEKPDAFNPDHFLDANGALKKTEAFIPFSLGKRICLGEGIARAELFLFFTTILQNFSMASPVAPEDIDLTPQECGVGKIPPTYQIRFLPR
Method: All incubations were performed in triplicate, and average values were used.
The metabolites formed from CYP substrates were quantified simultaneously by a LC-MS/MS method described previously. The ESI source settings in positive-ion mode for metabolite ionization were: capillary voltage, 4200 V; vaporizer temperature, 350 °C; capillary temperature, 330 °C; sheath gas pressure, 35 psi; and auxiliary gas pressure, 15 psi. […] Analytical data were processed using Xcalibur software (version 2.1, Thermo Scientific).
as §5

Chain of CYP3A4 (P08684 whole entry): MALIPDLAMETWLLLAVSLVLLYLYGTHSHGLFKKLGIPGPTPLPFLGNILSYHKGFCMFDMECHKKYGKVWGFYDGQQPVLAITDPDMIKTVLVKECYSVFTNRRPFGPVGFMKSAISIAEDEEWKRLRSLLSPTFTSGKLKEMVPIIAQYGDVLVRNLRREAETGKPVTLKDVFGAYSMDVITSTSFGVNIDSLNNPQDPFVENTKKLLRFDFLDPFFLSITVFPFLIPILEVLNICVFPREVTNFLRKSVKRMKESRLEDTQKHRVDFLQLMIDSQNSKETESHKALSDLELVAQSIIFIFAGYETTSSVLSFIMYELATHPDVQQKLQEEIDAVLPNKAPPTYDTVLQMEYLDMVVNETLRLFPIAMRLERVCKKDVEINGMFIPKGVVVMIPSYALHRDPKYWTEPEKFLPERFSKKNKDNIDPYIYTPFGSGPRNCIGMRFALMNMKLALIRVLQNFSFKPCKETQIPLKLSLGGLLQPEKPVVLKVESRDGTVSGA
T2 sequence (P11712 whole entry): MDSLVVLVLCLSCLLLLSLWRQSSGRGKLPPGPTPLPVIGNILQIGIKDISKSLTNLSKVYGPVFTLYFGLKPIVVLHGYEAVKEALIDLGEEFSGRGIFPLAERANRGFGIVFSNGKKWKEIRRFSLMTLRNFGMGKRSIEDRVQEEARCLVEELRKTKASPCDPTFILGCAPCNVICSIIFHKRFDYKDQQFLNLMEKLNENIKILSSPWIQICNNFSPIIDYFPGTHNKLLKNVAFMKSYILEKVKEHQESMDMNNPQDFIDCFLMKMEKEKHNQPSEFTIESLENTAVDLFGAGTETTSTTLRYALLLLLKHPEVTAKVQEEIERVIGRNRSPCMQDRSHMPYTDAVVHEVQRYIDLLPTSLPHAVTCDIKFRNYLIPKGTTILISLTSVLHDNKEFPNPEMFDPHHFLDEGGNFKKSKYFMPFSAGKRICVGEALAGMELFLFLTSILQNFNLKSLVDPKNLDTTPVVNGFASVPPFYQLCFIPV

O=C(c1cccc2ccccc12)c1cn(CCCCCF)c2ccccc12 [AM-2201, 1-(5-fluoropentyl-1H-indol-3-yl)-(naphthalene-1-yl)methanone] was tested, and the pKi (CYP3A4) was 5.40, the “Inhibition Mode” value (CYP3A4; CYP3A4 midazolam 1′-hydroxylation) was “competitively inhibited; also recorded: competitive” and the IC50 (CYP3A4; IC50 (μM) No Preincubation, CYP3A4, human liver microsomes, 2.5 μM midazolam) was 6.9 µM. For the same molecule, the IC50 (CYP3A4; IC50 (μM) With Preincubation, CYP3A4, 30 min preincubation with NADPH) was 3.8 µM, the pIC50 (CYP3A4; IC50, CYP3A4-catalyzed midazolam 1′-hydroxylation, abstract) was 5.40 and the “inhibition of UGT1A4-catalyzed trifluoperazine N-glucuronidation” value (UGT1A4) was “negligibly inhibited”. For the same molecule, the pKi (CYP2C9) was 5.41, the “Inhibition Mode” value (CYP2C9; CYP2C9 diclofenac 4′-hydroxylation) was “competitively inhibited; also recorded: competitive” and the IC50 (CYP2C9; IC50 (μM) No Preincubation, CYP2C9, human liver microsomes, 10 μM diclofenac) was 11.9 µM. The IC50 (CYP2C9; IC50 (μM) With Preincubation, CYP2C9, 30 min preincubation with NADPH) was 11.9 µM, the pIC50 (CYP2C9; IC50, CYP2C9-catalyzed diclofenac 4′-hydroxylation, abstract) was 5.41 and the “inhibition of CYP2B6-mediated bupropion hydroxylation” value (CYP2B6) was “negligibly inhibited”.
